Test results as given in patent US20220033397A1, “PHARMACEUTICAL COMPOUNDS AND THEIR USE AS INHIBITORS OF UBIQUITIN SPECIFIC PROTEASE 19 (USP19)” (ALMAC DISCOVERY LIMITED, priority 2018, published 2022).

target: T1, Full-length USP19 (Homo sapiens, UniProt O94966); test: USP19 fluorescence polarisation (FP) homogeneous assay with Ubiquitin-Lys-TAMRA substrate; type: biochemical; details: 2.5 nM USP19, 30 min pre-incubation, average of at least two duplicate experiments
T1 construct: Full-length USP19 was purchased from Boston Biochem (E-576); purchased Boston Biochem E-576
T1 sequence (O94966 1-1318): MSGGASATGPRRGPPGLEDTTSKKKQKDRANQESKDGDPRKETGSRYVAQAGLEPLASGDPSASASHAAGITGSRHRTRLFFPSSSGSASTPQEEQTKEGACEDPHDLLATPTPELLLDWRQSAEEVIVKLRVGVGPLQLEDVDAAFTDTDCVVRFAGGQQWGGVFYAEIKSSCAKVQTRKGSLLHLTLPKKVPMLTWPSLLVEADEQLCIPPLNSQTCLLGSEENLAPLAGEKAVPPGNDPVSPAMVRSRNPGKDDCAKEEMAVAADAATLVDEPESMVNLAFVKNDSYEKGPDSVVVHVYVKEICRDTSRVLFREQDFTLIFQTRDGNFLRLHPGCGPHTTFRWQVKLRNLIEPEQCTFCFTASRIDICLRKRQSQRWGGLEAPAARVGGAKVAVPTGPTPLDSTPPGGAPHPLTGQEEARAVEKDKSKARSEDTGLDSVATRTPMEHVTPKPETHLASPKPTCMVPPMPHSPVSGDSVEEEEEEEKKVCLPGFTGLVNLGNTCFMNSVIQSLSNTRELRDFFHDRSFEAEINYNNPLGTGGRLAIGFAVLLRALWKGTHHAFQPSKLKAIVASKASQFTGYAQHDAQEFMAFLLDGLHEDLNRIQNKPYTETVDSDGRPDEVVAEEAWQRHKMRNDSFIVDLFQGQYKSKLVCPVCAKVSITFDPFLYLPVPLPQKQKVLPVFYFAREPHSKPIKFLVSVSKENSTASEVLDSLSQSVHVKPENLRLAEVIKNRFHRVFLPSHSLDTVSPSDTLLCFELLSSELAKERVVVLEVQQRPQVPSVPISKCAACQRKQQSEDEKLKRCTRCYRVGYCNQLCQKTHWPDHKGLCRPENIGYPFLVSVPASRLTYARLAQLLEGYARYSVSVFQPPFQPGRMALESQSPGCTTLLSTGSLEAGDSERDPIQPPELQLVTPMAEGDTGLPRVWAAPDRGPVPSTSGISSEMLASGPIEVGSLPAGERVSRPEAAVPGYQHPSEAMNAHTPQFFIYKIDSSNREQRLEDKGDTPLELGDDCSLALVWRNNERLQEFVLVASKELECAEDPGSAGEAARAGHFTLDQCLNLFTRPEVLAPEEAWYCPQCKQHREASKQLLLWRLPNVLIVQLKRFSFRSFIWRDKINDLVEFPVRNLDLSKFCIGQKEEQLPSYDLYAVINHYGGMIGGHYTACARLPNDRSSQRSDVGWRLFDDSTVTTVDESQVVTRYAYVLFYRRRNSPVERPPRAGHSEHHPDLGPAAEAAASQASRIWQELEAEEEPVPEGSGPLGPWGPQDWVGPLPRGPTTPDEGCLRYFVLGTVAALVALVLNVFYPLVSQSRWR
Procedure, shortened: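 Full-length USP19 preincubated 30 min at RT with inhibitor (200 μM to 2 μM series, 8–18 points) before adding 500 nM Ubiquitin-Lys-TAMRA substrate.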

| Compound | IC50 |
| --- | --- |
| CN(C)C(=O)[C@@H]1CCCN1C(=O)N1CCC(O)(Cn2cnc(-c3ccccc3)cc2=O)C2(CCCC2)C1 (stereo partly drawn) [Example 266, (2S)-1-(10-Hydroxy-10-((6-oxo-4-phenylpyrimidin-1(6H)-yl)methyl)-7-azaspiro[4.5]decane-7-carbonyl)-N,N-dimethylpyrrolidine-2-carboxamide] | 50 to 250 µM |
| C[C@H](CC1CCCCC1)C(=O)N1CCC(O)(Cn2cc(S(C)(=O)=O)c(Cl)cc2=O)C2(CCCC2)C1 (stereo partly drawn) [Example 77, 4-Chloro-1-((7-((R)-3-cyclohexyl-2-methylpropanoyl)-10-hydroxy-7-azaspiro[4.5]decan-10-yl)methyl)-5-(methylsulfonyl)pyridin-2(1H)-one] | < 0.5 µM |
| O=C(NCc1noc(C2CC2)n1)N1CC[C@@](O)(Cn2cnc(-c3ccccc3)cc2=O)C2(CCCC2)C1 [Example 218, (S)—N-((5-Cyclopropyl-1,2,4-oxadiazol-3-yl)methyl)-10-hydroxy-10-((6-oxo-4-phenylpyrimidin-1(6H)-yl)methyl)-7-azaspiro[4.5]decane-7-carboxamide] | 5 to 50 µM |
| C[C@H](CC(F)(F)F)C(=O)N1CCC(O)(Cn2ccc3ncncc3c2=O)C2(CCCC2)C1 (stereo partly drawn) [Example 159, 6-((10-Hydroxy-7-((R)-4,4,4-trifluoro-2-methylbutanoyl)-7-azaspiro[4.5]decan-10-yl)methyl)pyrido[4,3-d]pyrimidin-5(6H)-one] | 5 to 50 µM |
| O=C(N1CCC(O)(Cn2cnc3c(cnn3C3CC3)c2=O)C2(CCCC2)C1)N1CCNC[C@H]1c1ccccc1 (stereo partly drawn) [Example 183, 1-Cyclopropyl-5-((10-hydroxy-7-((R)-2-phenylpiperazine-1-carbonyl)-7-azaspiro[4.5]decan-10-yl)methyl)-1,5-dihydro-4H-pyrazolo[3,4-d]pyrimidin-4-one] | < 0.5 µM |
| CC1(C)CCCN1C(=O)N1CCC(O)(Cn2cnc(-c3ccccc3)cc2=O)C2(CCCC2)C1 (stereo not drawn) [Example 240, 3-((7-(2,2-Dimethylpyrrolidine-1-carbonyl)-10-hydroxy-7-azaspiro[4.5]decan-10-yl)methyl)-6-phenylpyrimidin-4(3H)-one] | 5 to 50 µM |
| O=C(NCc1ccccc1)N1CCC(O)(Cn2ccc(-c3ccccc3)cc2=O)C2(CCCC2)C1 (stereo not drawn) [Example 192, N-Benzyl-10-hydroxy-10-((2-oxo-4-phenylpyridin-1(2H)-yl)methyl)-7-azaspiro[4.5]decane-7-carboxamide] | < 0.5 µM |
| C[C@H](CC(=O)N1CCC(O)(CN2CCN(c3ccccc3F)CC2=O)CC1)c1ccccc1 [Example 24, (R)-4-(2-Fluorophenyl)-1-((4-hydroxy-1-(3-phenylbutanoyl)piperidin-4-yl)methyl)piperazin-2-one] | 50 to 250 µM |
| CCCn1c(=O)n(CC2(O)CCN(C(=O)[C@H](C)CC3CCCCC3)CC23CCCC3)c2ccccc21 (stereo partly drawn) [Example 33, 1-((7-((R)-3-Cyclohexyl-2-methylpropanoyl)-10-hydroxy-7-azaspiro[4.5]decan-10-yl)methyl)-3-propyl-1,3-dihydro-2H-benzo[d]imidazol-2-one] | 5 to 50 µM |
| C[C@H](CC(F)(F)F)C(=O)N1CCC(O)(Cn2cc(N=S(C)(C)=O)c(-c3ccccc3)cc2=O)C2(CCCC2)C1 (stereo partly drawn) [Example 75, 5-((Dimethyl(oxo)-λ^6-sulfaneylidene)amino)-1-((10-hydroxy-7-((R)-4,4,4-trifluoro-2-methylbutanoyl)-7-azaspiro[4.5]decan-10-yl)methyl)-4-phenylpyridin-2(1H)-one] | < 0.5 µM |
| C[C@H](CC(F)(F)F)C(=O)N1CCC(O)(Cn2ccc3nc(N4CCNCC4)ncc3c2=O)C2(CCCC2)C1 (stereo partly drawn) [Example 63, 6-((10-Hydroxy-7-((R)-4,4,4-trifluoro-2-methylbutanoyl)-7-azaspiro[4.5]decan-10-yl)methyl)-2-(piperazin-1-yl)pyrido[4,3-d]pyrimidin-5(6H)-one] | 0.5 to 5 µM |
| C[C@H](CC(F)(F)F)C(=O)N1CCC(O)(CN2CCN(C3CCC(C)(C)CC3)CC2=O)C2(CCCC2)C1 (stereo partly drawn) [Example 116, 4-(4,4-Dimethylcyclohexyl)-1-((10-hydroxy-7-((R)-4,4,4-trifluoro-2-methylbutanoyl)-7-azaspiro[4.5]decan-10-yl)methyl)Piperazin-2-one] | 5 to 50 µM |
| CSc1ncc2c(=O)n(CC3(O)CCN(C(=O)[C@H](C)CC(F)(F)F)CC34CCCC4)n(C)c2n1 (stereo partly drawn) [Example 64, 2-((10-Hydroxy-7-((R)-4,4,4-trifluoro-2-methylbutanoyl)-7-azaspiro[4.5]decan-10-yl)methyl)-1-methyl-6-(methylthio)-1,2-dihydro-3H-pyrazolo[3,4-d]pyrimidin-3-one] | 0.5 to 5 µM |
| O=C(N1CC[C@@](O)(Cn2cnc(-c3ccc(Cl)cc3)cc2=O)C2(CCCC2)C1)N1CCNC[C@H]1c1ccccc1 [Example 349, 6-(4-Chlorophenyl)-3-(((S)-10-hydroxy-7-((R)-2-phenylpiperazine-1-carbonyl)-7-aza-spiro[4.5]decan-10-yl)methyl)pyrimidin-4(3H)-one] | < 0.5 µM |
| O=C(N1CC[C@@](O)(Cn2cnc(-c3ccccc3)cc2=O)C2(CCCC2)C1)N1CCN(CC(F)(F)F)C[C@H]1c1ccccc1 [Example 323, 3-(((S)-10-Hydroxy-7-((R)-2-phenyl-4-(2,2,2-trifluoroethyl)piperazine-1-carbonyl)-7-azaspiro[4.5]decan-10-yl)methyl)-6-phenylpyrimidin-4(3H)-one] | < 0.5 µM |
| O=C(N1CC[C@@](O)(Cn2ccc(-c3ccccc3F)cc2=O)C2(CCCC2)C1)N1CCNC[C@H]1c1cccc(F)c1 [Example 391, 4-(2-Fluorophenyl)-1-(((S)-7-((R)-2-(3-fluorophenyl)pipera-zine-1-carbonyl)-10-hydroxy-7-azaspiro[4.5]decan-10-yl)methyl)pyri-din-2(1H)-one] | < 0.5 µM |
| C[C@H](CC1CCCCC1)C(=O)N1CCC(O)(CN2Cc3cccnc3C2=O)C2(CCCC2)C1 (stereo partly drawn) [Example 102, 6-((7-((R)-3-Cyclohexyl-2-methylpropanoyl)-10-hydroxy-7-azaspiro[4.5]decan-10-yl)methyl)-5,6-dihydro-7H-pyrrolo[3,4-b]pyridin-7-one] | 5 to 50 µM |
| COc1ccc(-c2cc(=O)n(C[C@]3(O)CCN(C(=O)N4CCNC[C@H]4c4ccccc4)CC34CCCC4)cn2)cc1 [Example 339, 3-(((S)-10-Hydroxy-7-((R)-2-phenylpiperazine-1-carbonyl)-7-azaspiro[4.5]decan-10-yl)methyl)-6-(4-methoxyphenyl) pyrimidin-4(3H)-one] | < 0.5 µM |
| CC(NC(=O)N1CCC(O)(Cn2cnc(-c3ccccc3)cc2=O)C2(CCCC2)C1)c1ccoc1 (stereo not drawn) [Example 255, N-(1-(Furan-3-yl)ethyl)-10-hydroxy-10-((6-oxo-4-phenylpyrimidin-1(6H)-yl)methyl)-7-azaspiro[4.5]decane-7-carboxamide] | 0.5 to 5 µM |
| O=C(N1CC[C@@](O)(Cn2cnc(-c3ccccc3)cc2=O)C2(CCCC2)C1)N1CCNC[C@H]1c1cccc(F)c1F [Example 367, 3-(((S)-7-((R)-2-(2,3-Difluoro-phenyl)piper-azine-1-carbonyl)-10-hydroxy-7-azaspiro[4.5]decan-10-yl)methyl)-6-phenylpyrimidin-4(3H)-one] | < 0.5 µM |
| C[C@H](CC1CCCCC1)C(=O)N1CCC(O)(Cn2cnc3cc(F)c(Cl)cc3c2=O)C2(CCCC2)C1 (stereo partly drawn) [Example 155, 6-Chloro-3-((7-((R)-3-cyclohexyl-2-methylpropanoyl)-10-hydroxy-7-azaspiro[4.5]decan-10-yl)methyl)-7-fluoroquinazolin-4(3H)-one] | < 0.5 µM |
